Laboratory results taken from patent US9290459B1, “Substituted bicyclic dihydropyrimidinones and their use as inhibitors of neutrophil elastase activity” (Boehringer Ingelheim International GmbH, priority 2013, dated 2016).

target: Human neutrophil elastase (Homo sapiens (Human), UniProt P08246); assay: Human Neutrophil Elastase Assay; type: biochemical; settings: human neutrophil elastase, substrate MeOSuc-Ala-Ala-Pro-Val-AMC 250 μM, pH 7.5; read-out: IC50
Sequence (P08246 30-247): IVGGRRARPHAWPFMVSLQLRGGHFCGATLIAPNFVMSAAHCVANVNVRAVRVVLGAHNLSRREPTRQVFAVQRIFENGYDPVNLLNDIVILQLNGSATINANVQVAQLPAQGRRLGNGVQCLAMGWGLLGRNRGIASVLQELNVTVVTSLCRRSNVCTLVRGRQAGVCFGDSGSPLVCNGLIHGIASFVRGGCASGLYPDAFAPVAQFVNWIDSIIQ

IC50 | SMILES
4.9 nM | CNC(=O)N1C(=O)N(c2ccnc(C(F)(F)F)c2)C2=C(C(=O)CC2)C1c1ccc(C#N)cc1 (racemic) [Example 54.1]
1.5 nM | N#Cc1ccc(C2C3=C(CCC3=O)N(c3ccnc(C(F)(F)F)c3)C(=O)N2C(=O)NC2CC2)cc1 (racemic) [Example 54.3]
2.4 nM | CC(C)NC(=O)N1C(=O)N(c2ccnc(C(F)(F)F)c2)C2=C(C(=O)CC2)C1c1ccc(C#N)cc1 (racemic) [Example 54.4]
< 1 nM | CNC(=O)N1C(=O)N(c2ccnc(C(F)(F)F)c2)C2=C(C(=O)CC2)C1c1ccc(C#N)cc1S(C)(=O)=O (racemic) [Example 56.1]
< 1 nM | CCNC(=O)N1C(=O)N(c2ccnc(C(F)(F)F)c2)C2=C(C(=O)CC2)C1c1ccc(C#N)cc1S(C)(=O)=O (racemic) [Example 56.2]
8.1 nM | C[S+]([O-])c1cc(C#N)ccc1C1NC(=O)N(c2cccc(C(F)(F)F)c2)C2=C1C(=O)CC2 (single isomer, unassigned) [Example 17A, 4-(2,5-dioxo-1-(3-(trifluoromethyl)phenyl)-2,3,4,5,6,7-hexahydro-1H-cyclopenta[d]pyrimidin-4-yl)-3-(methylsulfinyl)benzonitrile]
9.4 nM | C[S+]([O-])c1cc(C#N)ccc1C1NC(=O)N(c2cccc(C(F)(F)F)c2)C2=C1C(=O)CC2 (single isomer, unassigned) [Example 17B, 4-(2,5-dioxo-1-(3-(trifluoromethyl)phenyl)-2,3,4,5,6,7-hexahydro-1H-cyclopenta[d]pyrimidin-4-yl)-3-(methylsulfinyl)benzonitrile]
17 nM | COC(=O)CN1C(=O)N(c2cccc(C(F)(F)F)c2)C2=C(C(=O)CC2)C1c1ccc(C#N)cc1 (stereo not drawn) [Example 3, Methyl 2-(4-(4-Cyanophenyl)-2,5-dioxo-1-(3-(trifluoromethyl)phenyl)-6,7-dihydro-1H-cyclopenta[d]pyrimidin-3(2H,4H,5H)-yl)acetate]
10.9 nM | N#Cc1ccc(C2C3=C(CCC3=O)N(c3cccc(C(F)(F)F)c3)C(=O)N2CC(=O)O)cc1 (stereo not drawn) [Example 4, 2-(4-(4-Cyanophenyl)-2,5-dioxo-1-(3-(trifluoromethyl)phenyl)-6,7-dihydro-1H-cyclopenta[d]pyrimidin-3(2H,4H,5H)-yl)acetic acid]
11.2 nM | N#Cc1ccc(C2C3=C(CCC3=O)N(c3cccc(C(F)(F)F)c3)C(=O)N2CC(N)=O)cc1 (stereo not drawn) [Example 5, 2-(4-(4-Cyanophenyl)-2,5-dioxo-1-(3-(trifluoromethyl)phenyl)-6,7-dihydro-1H-cyclopenta[d]pyrimidin-3(2H,4H,5H)-yl)acetamide]
3 nM | N#Cc1ccc(C2C3=C(CCC3=O)N(c3cccc(C(F)(F)F)c3)C(=O)N2CC(=O)N2CCSCC2)cc1 (stereo not drawn) [Example 6, 4-(2,5-Dioxo-3-(2-oxo-2-thiomorpholinoethyl)-1-(3-(trifluoromethyl)phenyl)-2,3,4,5,6,7-hexahydro-1H-cyclopenta[d]pyrimidin-4-yl)benzonitrile]
124 nM | CN(C)C(=O)N1C(=O)N(c2cccc(C(F)(F)F)c2)C2=C(C(=O)CC2)C1c1ccc(C#N)cc1 (stereo not drawn) [Example 7, 4-(4-Cyanophenyl)-N,N-dimethyl-2,5-dioxo-1-(3-(trifluoromethyl)phenyl)-4,5,6,7-tetrahydro-1H-cyclopenta[d]pyrimidine-3(2H)-carboxamide]
4 nM | COC(=O)N1C(=O)N(c2cccc(C(F)(F)F)c2)C2=C(C(=O)CC2)C1c1ccc(C#N)cc1 (stereo not drawn) [Example 8, Methyl 4-(4-Cyanophenyl)-2,5-dioxo-1-(3-(trifluoromethyl)phenyl)-4,5,6,7-tetrahydro-1H-cyclopenta[d]pyrimidine-3(2H)-carboxylate]
5.1 nM | CS(=O)(=O)N1C(=O)N(c2cccc(C(F)(F)F)c2)C2=C(C(=O)CC2)C1c1ccc(C#N)cc1 (stereo not drawn) [Example 9, 4-(3-(Methylsulfonyl)-2,5-dioxo-1-(3-(trifluoromethyl)phenyl)-2,3,4,5,6,7-hexahydro-1H-cyclopenta[d]pyrimidin-4-yl)benzonitrile]
3180 nM | CS(=O)(=O)N1C(=O)N(c2cccc(C(F)(F)F)c2)C2=C(C(=O)CC2)[C@@H]1c1ccc(C#N)cc1 [Example 9B, (S)-4-(3-(Methylsulfonyl)-2,5-dioxo-1-(3-(trifluoromethyl)phenyl)-2,3,4,5,6,7-hexahydro-1H-cyclopenta[d]pyrimidin-4-yl)benzonitrile]
37.4 nM | N#Cc1ccc(C2NC(=O)N(c3cccc(C(F)F)c3)C3=C2C(=O)CC3)cc1 (stereo not drawn) [Example 11, 4-(1-(3-(Difluoromethyl)phenyl)-2,5-dioxo-2,3,4,5,6,7-hexahydro-1H-cyclopenta[d]-pyrimidin-4-yl)benzonitrile]

IC50 | SMILES
201 nM | N#Cc1ccc(C2NC(=O)N(c3cccc(C(F)(F)F)c3)C3=C2C(=O)CC3)cn1 (stereo not drawn) [Example 12, 5-(2,5-Dioxo-1-(3-(trifluoromethyl)phenyl)-2,3,4,5,6,7-hexahydro-1H-cyclopenta[d]-pyrimidin-4-yl)picolinonitrile]
17.9 nM | N#Cc1ccc(C2NC(=O)N(c3cccc(C(F)(F)F)c3)C3=C2C(=O)CC3)c(Br)c1 (stereo not drawn) [Example 13, 3-Bromo-4-(2,5-dioxo-1-(3-(trifluoromethyl)phenyl)-2,3,4,5,6,7-hexahydro-1H-cyclopenta[d]pyrimidin-4-yl)benzonitrile]
30.1 nM | N#Cc1ccc(C2NC(=O)N(c3cccc(C(F)(F)F)c3)C3=C2C(=O)CC3)c(Cl)c1 (stereo not drawn) [Example 15, 3-Chloro-4-(2,5-dioxo-1-(3-(trifluoromethyl)phenyl)-2,3,4,5,6,7-hexahydro-1H-cyclopenta[d]pyrimidin-4-yl)benzonitrile]
42.1 nM | COc1cc(C#N)ccc1C1NC(=O)N(c2cccc(C(F)(F)F)c2)C2=C1C(=O)CC2 (stereo not drawn) [Example 15.1]
28.6 nM | Cc1cc(C#N)ccc1C1NC(=O)N(c2cccc(C(F)(F)F)c2)C2=C1C(=O)CC2 (stereo not drawn) [Example 15.2]
106 nM | N#Cc1ccc(C2NC(=O)N(c3cccc(C(F)(F)F)c3)C3=C2C(=O)CC3)nc1 (stereo not drawn) [Example 15.3, 6-(2,5-dioxo-1-(3-(trifluoromethyl)phenyl)-2,3,4,5,6,7-hexahydro-1H-cyclopenta[d]pyrimidin-4-yl)nicotinonitrile]
31.5 nM | N#Cc1ccc([C@H]2NC(=O)N(c3cccc(C(F)(F)F)c3)C3=C2C(=O)CC3)nc1 [Example 15.3A, (S)-6-(2,5-Dioxo-1-(3-(trifluoromethyl)phenyl)-2,3,4,5,6,7-hexahydro-1H-cyclopenta[d]pyrimidin-4-yl)nicotinonitrile]
1720 nM | N#Cc1ccc([C@@H]2NC(=O)N(c3cccc(C(F)(F)F)c3)C3=C2C(=O)CC3)nc1 [Example 15.3B, (R)-6-(2,5-Dioxo-1-(3-(trifluoromethyl)phenyl)-2,3,4,5,6,7-hexahydro-1H-cyclopenta[d]pyrimidin-4-yl)nicotinonitrile]
66 nM | CC1CC2=C(C1=O)C(c1ccc(C#N)cc1)NC(=O)N2c1cccc(C(F)(F)F)c1 (stereo not drawn) [Example 15.7]
14.9 nM | CSc1cc(C#N)ccc1C1NC(=O)N(c2cccc(C(F)(F)F)c2)C2=C1C(=O)CC2 (stereo not drawn) [Example 16, 4-(2,5-Dioxo-1-(3-(trifluoromethyl)phenyl)-2,3,4,5,6,7-hexahydro-1H-cyclopenta[d]-pyrimidin-4-yl)-3-(methylthio)benzonitrile]
44.2 nM | N#Cc1ccc(C2NC(=O)N(c3cccc(C(F)(F)F)c3)C3=C2C(=O)CC3)c(F)c1 (stereo not drawn) [Example 18, 4-(2,5-Dioxo-1-(3-(trifluoromethyl)phenyl)-2,3,4,5,6,7-hexahydro-1H-cyclopenta[d]-pyrimidin-4-yl)-3-fluorobenzonitrile]
9.1 nM | CC(C(=O)NCCO)N1C(=O)N(c2cccc(C(F)(F)F)c2)C2=C(C(=O)CC2)C1c1ccc(C#N)cc1 (stereo not drawn) [Example 20, 2-(4-(4-Cyanophenyl)-2,5-dioxo-1-(3-(trifluoromethyl)phenyl)-6,7-dihydro-1H-cyclopenta[d]pyrimidin-3(2H,4H,5H)-yl)-N-(2-hydroxyethyl)propanamide]
1.7 nM | CS(=O)(=O)c1cc(C#N)ccc1C1C2=C(CCC2=O)N(c2cccc(C(F)(F)F)c2)C(=O)N1CC1CCOCC1 (stereo not drawn) [Example 24.5]
< 1 nM | CS(=O)(=O)c1cc(C#N)ccc1C1C2=C(CCC2=O)N(c2cccc(C(F)(F)F)c2)C(=O)N1CCC1CCOCC1 (stereo not drawn) [Example 24.6]
9.4 nM | CN1C(=O)N(c2cccc(C(F)F)c2)C2=C(C(=O)CC2)C1c1ccc(C#N)cc1 (stereo not drawn) [Example 26, 4-(1-(3-(Difluoromethyl)phenyl)-3-methyl-2,5-dioxo-2,3,4,5,6,7-hexahydro-1H-cyclopenta[d]pyrimidin-4-yl)benzonitrile]

SMILES | IC50
CS(=O)(=O)c1cc(C#N)ccc1C1NC(=O)N(c2cccc(C(F)(F)F)c2)C2=C1C(=O)CC2 (stereo not drawn) [Example 10, 4-(2,5-Dioxo-1-(3-(trifluoromethyl)phenyl)-2,3,4,5,6,7-hexahydro-1H-cyclopenta[d]pyrimidin-4-yl)-3-(methylsulfonyl)benzonitrile] | 5.8 nM
CS(=O)(=O)c1cc(C#N)ccc1[C@@H]1NC(=O)N(c2cccc(C(F)(F)F)c2)C2=C1C(=O)CC2 [Example 10B, (R)-4-(2,5-Dioxo-1-(3-(trifluoromethyl)phenyl)-2,3,4,5,6,7-hexahydro-1H-cyclopenta[d]pyrimidin-4-yl)-3-(methylsulfonyl)benzonitrile] | 98.4 nM
CCS(=O)(=O)c1cc(C#N)ccc1[C@@H]1NC(=O)N(c2cccc(C(F)(F)F)c2)C2=C1C(=O)CC2 [Example 14B, (R)-4-(2,5-Dioxo-1-(3-(trifluoromethyl)phenyl)-2,3,4,5,6,7-hexahydro-1H-cyclopenta[d]pyrimidin-4-yl)-3-(ethylsulfonyl)benzonitrile] | 33 nM
CS(=O)(=O)c1cc(C#N)ccc1[C@@H]1NC(=O)N(c2cccc(C(F)F)c2)C2=C1C(=O)CC2 [Example 15.4B, (R)-4-(1-(3-(Difluoromethyl)phenyl)-2,5-dioxo-2,3,4,5,6,7-hexahydro-1H-cyclopenta[d]pyrimidin-4-yl)-3-(methylsulfonyl)benzonitrile] | 57.7 nM
N#Cc1ccc(C2NC(=O)N(c3ccnc(C(F)(F)F)c3)C3=C2C(=O)CC3)cc1 (stereo not drawn) [Example 15.5, 4-(2,5-Dioxo-1-(2-(tri-fluoromethyl)pyridin-4-yl)-2,3,4,5,6,7-hexahydro-1H-cyclopenta[d]pyrimidin-4-yl)benzonitrile] | 110 nM
